From patent publication US10201523B2, “Use of wilforlide A for overcoming chemotherapy resistance” (WESTERN UNIVERSITY OF HEALTH SCIENCES, priority 2013, dated 2019)
Several values for one entry are separate records, joined by “and”; a condition that tells them apart may be missing. Equal values may be shown once. Read-outs that look alike come from different tables or passages of the source.

Experiments:
K562/Dox = experiment: SRB cell viability assay, daunorubicin with/without wilforlide A pretreatment; assay type: cell-based; conditions: for viability at 0.001 µM / viability at 0.1 µM / viability at 0.333 µM / viability at 1 µM / viability at 3.33 µM / viability at 10 µM / viability at 33.3 µM / viability at 100 µM / IC50: Homo sapiens; for A at 565 nm: background = 0.043
From the text: Wilforlide A sensitizes the daunorubicin-resistant myelogenous leukemia line K562/Dox, to daunorubicin. […] FIG. 5 summarizes the data of Tables 20 and 21 in a graphical format.

K562 = experiment: SRB cell viability assay, daunorubicin IC50; assay type: cell-based; conditions: Homo sapiens, 72 h, read-out: Drug IC50 no pre-Tx
[1] = K562/Dox, no wilforlide A pre-Tx, daunorubicin 0.001 μM 72 h
[2] = K562/Dox, no wilforlide A pre-Tx, daunorubicin 0.333 μM 72 h
[3] = K562/Dox, no wilforlide A pre-Tx, daunorubicin 1 μM 72 h
[4] = K562/Dox, no wilforlide A pre-Tx, daunorubicin 3.33 μM 72 h
[5] = K562/Dox, no wilforlide A pre-Tx, daunorubicin 10 μM 72 h
[6] = K562/Dox, no wilforlide A pre-Tx, daunorubicin 33.3 μM 72 h
[7] = K562/Dox, no wilforlide A pre-Tx, daunorubicin 100 μM 72 h
[8] = K562/Dox, wilforlide A 2.5 μg/ml pre-Tx, daunorubicin 0.001 μM 72 h
[9] = K562/Dox, wilforlide A 2.5 μg/ml pre-Tx, daunorubicin 0.333 μM 72 h
[10] = K562/Dox, wilforlide A 2.5 μg/ml pre-Tx, daunorubicin 1 μM 72 h
[11] = K562/Dox, wilforlide A 2.5 μg/ml pre-Tx, daunorubicin 3.33 μM 72 h
[12] = K562/Dox, wilforlide A 2.5 μg/ml pre-Tx, daunorubicin 10 μM 72 h
[13] = K562/Dox, wilforlide A 2.5 μg/ml pre-Tx, daunorubicin 33.3 μM 72 h
[14] = K562/Dox, wilforlide A 2.5 μg/ml pre-Tx, daunorubicin 100 μM 72 h

COc1cccc2c1C(=O)c1c(O)c3c(c(O)c1C2=O)C[C@@](O)(C(C)=O)C[C@@H]3O[C@H]1C[C@H](N)[C@H](O)[C@H](C)O1 [daunorubicin]
viability at 0.001 µM (K562/Dox; K562, 72 h, K562/Dox, no wilforlide A pre-Tx, daunorubicin 0.001 μM 72 h): 100% | viability at 0.1 µM (K562/Dox; K562, 72 h, K562/Dox, no wilforlide A pre-Tx, daunorubicin 0.1 μM 72 h): 58.1% | viability at 0.333 µM (K562/Dox; K562, 72 h, K562/Dox, no wilforlide A pre-Tx, daunorubicin 0.333 μM 72 h): 102% | viability at 1 µM (K562/Dox; K562, 72 h, K562/Dox, no wilforlide A pre-Tx, daunorubicin 1 μM 72 h): 99.6% | viability at 3.33 µM (K562/Dox; K562, 72 h, K562/Dox, no wilforlide A pre-Tx, daunorubicin 3.33 μM 72 h): 95.9% | viability at 10 µM (K562/Dox; K562, 72 h, K562/Dox, no wilforlide A pre-Tx, daunorubicin 10 μM 72 h): 92.3% | viability at 33.3 µM (K562/Dox; K562, 72 h, K562/Dox, no wilforlide A pre-Tx, daunorubicin 33.3 μM 72 h): 53.8% | viability at 100 µM (K562/Dox; K562, 72 h, K562/Dox, no wilforlide A pre-Tx, daunorubicin 100 μM 72 h): 22.4% | viability at 0.001 µM (K562/Dox; K562, 72 h, K562/Dox, wilforlide A 2.5 μg/ml pre-Tx, daunorubicin 0.001 μM 72 h): 100% | viability at 0.1 µM (K562/Dox; K562, 72 h, K562/Dox, wilforlide A 2.5 μg/ml pre-Tx, daunorubicin 0.1 μM 72 h): 54.1% | viability at 0.333 µM (K562/Dox; K562, 72 h, K562/Dox, wilforlide A 2.5 μg/ml pre-Tx, daunorubicin 0.333 μM 72 h): 104% | viability at 1 µM (K562/Dox; K562, 72 h, K562/Dox, wilforlide A 2.5 μg/ml pre-Tx, daunorubicin 1 μM 72 h): 99% | viability at 3.33 µM (K562/Dox; K562, 72 h, K562/Dox, wilforlide A 2.5 μg/ml pre-Tx, daunorubicin 3.33 μM 72 h): 95.4% | viability at 10 µM (K562/Dox; K562, 72 h, K562/Dox, wilforlide A 2.5 μg/ml pre-Tx, daunorubicin 10 μM 72 h): 78.6% | viability at 33.3 µM (K562/Dox; K562, 72 h, K562/Dox, wilforlide A 2.5 μg/ml pre-Tx, daunorubicin 33.3 μM 72 h): 33.7% | viability at 100 µM (K562/Dox; K562, 72 h, K562/Dox, wilforlide A 2.5 μg/ml pre-Tx, daunorubicin 100 μM 72 h): 29.6% | IC50 (K562/Dox; K562, 72 h, read-out: Drug IC50 no pre-Tx): 30.7 µM | IC50 (K562/Dox; K562, read-out: Drug IC50 after wilforlide A pre-Tx): 13.6 µM | mean A (K562/Dox; [1]): 2.893 | A at 565 nm (K562/Dox; [1]): 2.848 and 2.923 and 2.909 | mean A (K562/Dox; K562/Dox, no wilforlide A pre-Tx, daunorubicin 0.1 μM 72 h): 1.682 | mean A (K562/Dox; [2]): 2.951 | A at 565 nm (K562/Dox; [2]): 2.943 and 2.956 and 2.955 | mean A (K562/Dox; [3]): 2.880 | A at 565 nm (K562/Dox; [3]): 2.892 and 2.878 and 2.872 | mean A (K562/Dox; [4]): 2.775 | A at 565 nm (K562/Dox; [4]): 2.805 and 2.780 and 2.741 | mean A (K562/Dox; [5]): 2.670 | A at 565 nm (K562/Dox; [5]): 2.678 and 2.720 and 2.613 | mean A (K562/Dox; [6]): 1.556 | A at 565 nm (K562/Dox; [6]): 1.625 and 1.639 and 1.406 | mean A (K562/Dox; [7]): 0.647 | A at 565 nm (K562/Dox; [7]): 0.757 and 0.657 and 0.528 | mean A (K562/Dox; [8]): 2.815 | A at 565 nm (K562/Dox; [8]): 2.797 and 2.838 and 2.810 | mean A (K562/Dox; K562/Dox, wilforlide A 2.5 μg/ml pre-Tx, daunorubicin 0.1 μM 72 h): 1.522 | mean A (K562/Dox; [9]): 2.938 | A at 565 nm (K562/Dox; [9]): 2.838 and 2.951 and 3.025 | mean A (K562/Dox; [10]): 2.786 | A at 565 nm (K562/Dox; [10]): 2.777 and 2.784 and 2.799 | mean A (K562/Dox; [11]): 2.684 | A at 565 nm (K562/Dox; [11]): 2.657 and 2.681 and 2.715 | mean A (K562/Dox; [12]): 2.213 | A at 565 nm (K562/Dox; [12]): 2.200 and 2.392 and 2.049 | mean A (K562/Dox; [13]): 0.947 | A at 565 nm (K562/Dox; [13]): 1.016 and 0.901 and 0.926 | mean A (K562/Dox; [14]): 0.832 | A at 565 nm (K562/Dox; [14]): 0.843 and 0.815 and 0.840 | CE (K562/Dox; chemosensitization effect, K562/Dox, wilforlide A 2.5 μg/ml pre-Tx): 2.27 | IC50 (K562): 1.05 µM
